Where a SMILES comes first, the peptide text is derived from it.

HLA A*3001, sequence (P04439 25-365 limits assumed, stated change not applied): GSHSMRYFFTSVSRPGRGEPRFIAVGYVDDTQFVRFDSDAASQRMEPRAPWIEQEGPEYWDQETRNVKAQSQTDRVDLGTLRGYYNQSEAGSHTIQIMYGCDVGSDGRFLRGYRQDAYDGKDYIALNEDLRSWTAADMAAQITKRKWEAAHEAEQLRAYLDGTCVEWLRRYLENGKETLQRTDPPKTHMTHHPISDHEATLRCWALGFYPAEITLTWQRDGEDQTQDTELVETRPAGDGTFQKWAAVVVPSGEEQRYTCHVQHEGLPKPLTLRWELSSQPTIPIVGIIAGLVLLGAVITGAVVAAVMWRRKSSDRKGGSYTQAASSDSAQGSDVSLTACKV

This test concerns the target HLA A*3001 (Homo sapiens, UniProt P04439, D140H/D185E/E176W/F33S/G80R/H175R/K168Q/R138E/R41S). Put plainly: biochemical. The format is binding.
One may read the IC50 as the point on the concentration scale where inhibition reaches its midpoint. A higher IC50 goes with lower potency. Compound `CC(C)C[C@H](NC(=O)[C@H](CCC(N)=O)NC(=O)[C@H](Cc1c[nH]cn1)NC(=O)[C@H](CCCCN)NC(=O)[C@H](CO)NC(=O)[C@H](CO)NC(=O)[C@@H](NC(=O)[C@@H](N)CCCCN)C(C)C)C(=O)N[C@H](C(=O)O)C(C)C` [3102.0182] (H-KVSSKHQLV-OH) gave an IC50 of 14 nM. The compound `CC(C)C[C@H](N)C(=O)N[C@H](C(=O)N[C@@H](CCCCN)C(=O)N[C@@H](CO)C(=O)N[C@@H](CO)C(=O)N[C@@H](Cc1ccccc1)C(=O)N[C@H](C(=O)N[C@@H](CCCCN)C(=O)N[C@@H](CCCCN)C(=O)O)C(C)C)C(C)C` [3102.0185] (H-LVKSSFVKK-OH) had an IC50 of 5.6 nM. Regarding `CC[C@H](C)[C@H](NC(=O)[C@@H]1CCCN1C(=O)[C@H](C)NC(=O)[C@H](CO)NC(=O)[C@H](C)NC(=O)[C@@H]1CCCN1C(=O)[C@H](CCCCN)NC(=O)[C@@H](NC(=O)[C@@H](N)CCCNC(=N)N)[C@@H](C)O)C(=O)O` [3102.0187] (H-RTKPASAPI-OH), the concentration for half-maximal inhibition (IC50) was 0.11 nM. `CC[C@H](C)[C@H](NC(=O)[C@H](Cc1ccccc1)NC(=O)[C@H](CC(C)C)NC(=O)[C@H](CC(=O)O)NC(=O)[C@H](CCCNC(=N)N)NC(=O)[C@@H](NC(=O)[C@@H](N)CCCNC(=N)N)[C@@H](C)O)C(=O)N[C@@H](C)C(=O)N[C@@H](CC(C)C)C(=O)O` [3102.0188] (H-RTRDLFIAL-OH): the IC50 worked out at 0.11 nM. Then `CC[C@H](C)[C@H](NC(=O)[C@@H](NC(=O)[C@@H](N)CCCCN)[C@@H](C)O)C(=O)N[C@@H](Cc1c[nH]c2ccccc12)C(=O)N[C@@H](CCC(=O)O)C(=O)N[C@H](C(=O)N1CCC[C@H]1C(=O)N[C@@H](CCC(N)=O)C(=O)N[C@@H](CCCCN)C(=O)O)[C@@H](C)CC` [3102.0190] (H-KTIWEIPQK-OH), with 12 nM. As to `CC[C@H](C)[C@H](NC(=O)[C@@H](NC(=O)[C@@H](N)CCCCN)C(C)C)C(=O)N[C@H](C(=O)N[C@@H](CCCNC(=N)N)C(=O)N[C@@H](CC(N)=O)C(=O)N[C@@H](CC(C)C)C(=O)N[C@@H](CC(N)=O)C(=O)N[C@@H](CCCCN)C(=O)O)C(C)C` [3102.0191] (H-KVIVRNLNK-OH), the IC50 came out at 1.4 nM. Consider `CC(C)C[C@H](NC(=O)[C@H](Cc1c[nH]c2ccccc12)NC(=O)[C@H](CCCCN)NC(=O)[C@@H](NC(=O)[C@@H](N)CCCCN)C(C)C)C(=O)N[C@@H](CCC(N)=O)C(=O)N[C@@H](CC(N)=O)C(=O)N[C@@H](CO)C(=O)N[C@H](C(=O)O)C(C)C` [3102.0194] (H-KVKWLQNSV-OH), for which half-maximal inhibition (IC50) required 0.5 nM. Then `CSCC[C@H](NC(=O)[C@@H]1CCCN1C(=O)[C@H](CC(C)C)NC(=O)[C@H](CO)NC(=O)[C@H](CCC(=O)O)NC(=O)[C@H](CCCCN)NC(=O)[C@H](CC(N)=O)NC(=O)[C@@H](N)CCCCN)C(=O)N[C@@H](CC(C)C)C(=O)O` [3102.0195] (H-KNKESLPML-OH), with 18 nM; and `CC[C@H](C)[C@H](NC(=O)[C@H](CO)NC(=O)[C@@H](NC(=O)[C@H](CCCCN)NC(=O)[C@H](CCCCN)NC(=O)[C@H](CCC(N)=O)NC(=O)[C@@H](N)CCCNC(=N)N)[C@@H](C)CC)C(=O)N[C@@H](CC(C)C)C(=O)N[C@H](C(=O)O)C(C)C` [3102.0196] (H-RQKKISILV-OH), with 0.36 nM; and `CC(C)[C@H](NC(=O)[C@@H](N)CCCNC(=N)N)C(=O)N[C@@H](Cc1c[nH]cn1)C(=O)N[C@@H](CC(=O)O)C(=O)N[C@H](C(=O)N[C@@H](CC(N)=O)C(=O)N[C@@H](C)C(=O)N[C@H](C(=O)N[C@@H](CCCCN)C(=O)O)[C@@H](C)O)[C@@H](C)O` [3102.0197] (H-RVHDTNATK-OH), with 7.7 nM.

`CC(C)C[C@H](NC(=O)[C@H](Cc1ccccc1)NC(=O)[C@@H](NC(=O)[C@H](Cc1ccc(O)cc1)NC(=O)[C@H](CCCNC(=N)N)NC(=O)[C@@H](NC(=O)[C@@H](N)CC(N)=O)C(C)C)C(C)C)C(=O)N[C@@H](Cc1ccc(O)cc1)C(=O)N[C@@H](CCCCN)C(=O)O` [3102.0198] (H-NVRYVFLYK-OH): the midpoint of inhibition, the IC50, lay at 9.9 nM.

For `CC[C@H](C)[C@H](N)C(=O)N[C@@H](CO)C(=O)N[C@@H](CCCNC(=N)N)C(=O)N[C@@H](CC(N)=O)C(=O)N[C@@H](CCCCN)C(=O)N[C@@H](CC(N)=O)C(=O)N[C@H](C(=O)N[C@@H](Cc1ccccc1)C(=O)N[C@H](C(=O)O)C(C)C)[C@@H](C)CC` [3102.0199] (H-ISRNKNIFV-OH), it took 7.3 nM to reach half-maximal inhibition (IC50). Then `CC[C@H](C)[C@H](NC(=O)[C@H](CCCCN)NC(=O)[C@@H](NC(=O)CN)[C@@H](C)O)C(=O)N[C@@H](C)C(=O)N[C@@H](CC(C)C)C(=O)N[C@@H](CC(C)C)C(=O)N[C@@H](CCC(=O)O)C(=O)N[C@@H](CC(C)C)C(=O)O` [3102.0200] (H-GTKIALLEL-OH), with 1.3 nM. In the case of `CC[C@H](C)[C@H](NC(=O)[C@H](CCCCN)NC(=O)[C@@H](NC(=O)[C@@H](N)CCCNC(=N)N)[C@@H](C)O)C(=O)N[C@H](C(=O)N[C@@H](CO)C(=O)N[C@@H](CC(C)C)C(=O)N1CCC[C@H]1C(=O)N[C@@H](CC(C)C)C(=O)O)[C@@H](C)O` [3102.0201] (H-RTKITSLPL-OH), the IC50 was 0.087 nM. Then `CC[C@H](C)[C@H](NC(=O)[C@H](C)NC(=O)[C@@H](NC(=O)[C@@H](NC(=O)[C@H](C)NC(=O)[C@H](Cc1ccccc1)NC(=O)[C@@H](NC(=O)[C@@H](N)CCCCN)[C@@H](C)O)[C@@H](C)CC)[C@@H](C)CC)C(=O)N[C@H](C(=O)O)C(C)C` [3102.0202] (H-KTFAIIAIV-OH), with 24 nM; and `CSCC[C@H](N)C(=O)N[C@@H](CO)C(=O)N[C@@H](CCCNC(=N)N)C(=O)N[C@@H](CCCNC(=N)N)C(=O)N[C@@H](Cc1ccc(O)cc1)C(=O)N[C@@H](CO)C(=O)N[C@@H](CCCNC(=N)N)C(=O)N[C@@H](CCC(=O)O)C(=O)N[C@@H](CCCCN)C(=O)O` [3102.0203] (H-MSRRYSREK-OH), with 1.3 nM. For `CC[C@H](C)[C@H](NC(=O)[C@H](C)NC(=O)[C@@H](N)CCCCN)C(=O)N[C@@H](CO)C(=O)N[C@@H](CC(N)=O)C(=O)N[C@@H](C)C(=O)N[C@@H](CCCNC(=N)N)C(=O)N[C@@H](CC(C)C)C(=O)N[C@@H](CCCCN)C(=O)O` [3102.0204] (H-KAISNARLK-OH), the IC50 is 26 nM. `CC[C@H](C)[C@H](NC(=O)[C@H](CCCNC(=N)N)NC(=O)[C@@H](NC(=O)[C@H](CC(=O)O)NC(=O)[C@H](CCCCN)NC(=O)[C@@H](NC(=O)[C@@H](N)CCCNC(=N)N)[C@@H](C)O)[C@@H](C)O)C(=O)N[C@@H](CCCCN)C(=O)N[C@@H](C)C(=O)O` [3102.0205] (H-RTKDTRIKA-OH) displayed an IC50 of 0.2 nM.

With `CC[C@H](C)[C@H](NC(=O)[C@@H](N)CCCCN)C(=O)N[C@@H](CCCNC(=N)N)C(=O)N1CCC[C@H]1C(=O)N[C@H](C(=O)N[C@@H](CCCNC(=N)N)C(=O)N[C@@H](CO)C(=O)N[C@H](C(=O)N[C@@H](Cc1ccc(O)cc1)C(=O)O)C(C)C)[C@@H](C)O` [3102.0206] (H-KIRPTRSVY-OH), the IC50 was 7.2 nM. Under `CC[C@H](C)[C@H](NC(=O)[C@H](Cc1ccc(O)cc1)NC(=O)[C@H](C)NC(=O)[C@H](C)NC(=O)[C@H](Cc1c[nH]cn1)NC(=O)[C@H](CO)NC(=O)[C@H](CCCCN)NC(=O)[C@H](CO)NC(=O)[C@@H](N)CCSC)C(=O)O` [3102.0207] (H-MSKSHAAYI-OH) stands 0.23 nM; under `CC(C)C[C@H](NC(=O)[C@@H](N)CCCNC(=N)N)C(=O)N[C@@H](CCCCN)C(=O)N[C@@H](CC(=O)O)C(=O)N[C@@H](Cc1ccc(O)cc1)C(=O)N[C@@H](CCC(N)=O)C(=O)N[C@@H](Cc1c[nH]cn1)C(=O)N[C@@H](Cc1ccccc1)C(=O)N[C@H](C(=O)O)C(C)C` [3102.0208] (H-RLKDYQHFV-OH), 0.39 nM.

In turn, `CSCC[C@H](N)C(=O)NCC(=O)N[C@@H](CCCNC(=N)N)C(=O)N[C@@H](Cc1ccccc1)C(=O)NCC(=O)N[C@@H](Cc1ccc(O)cc1)C(=O)N[C@H](C(=O)N1CCC[C@H]1C(=O)N[C@@H](Cc1ccc(O)cc1)C(=O)O)C(C)C` [3102.0212] (H-MGRFGYVPY-OH) had a 50% inhibitory concentration (IC50) of 15 nM.

Compound `CC[C@H](C)[C@H](NC(=O)[C@@H](N)CO)C(=O)N[C@@H](CCCCN)C(=O)N[C@@H](CCCNC(=N)N)C(=O)N[C@@H](CO)C(=O)N[C@@H](CC(N)=O)C(=O)N[C@H](C(=O)N[C@@H](Cc1ccccc1)C(=O)N[C@@H](C)C(=O)O)C(C)C` [3102.0214] (H-SIKRSNVFA-OH) returned an IC50 of 3.6 nM. On to `CC(C)C[C@H](NC(=O)[C@@H]1CCCN1C(=O)[C@H](Cc1c[nH]cn1)NC(=O)[C@@H](NC(=O)[C@H](CS)NC(=O)[C@H](CCCCN)NC(=O)[C@@H](NC(=O)[C@@H](N)CO)C(C)C)[C@@H](C)O)C(=O)N[C@H](C(=O)O)C(C)C` [3102.0215] (H-SVKCTHPLV-OH), for which the IC50 was 0.97 nM. `CC[C@H](C)[C@H](NC(=O)[C@H](CCCNC(=N)N)NC(=O)[C@@H]1CCCN1C(=O)[C@H](CO)NC(=O)[C@H](C)NC(=O)[C@H](CCCNC(=N)N)NC(=O)[C@H](CO)NC(=O)[C@@H](N)Cc1c[nH]cn1)C(=O)NCC(=O)O` [3102.0216] (H-HSRASPRIG-OH) yielded an IC50 of 0.93 nM. Under `CSCC[C@H](NC(=O)[C@H](CC(C)C)NC(=O)[C@H](CCCNC(=N)N)NC(=O)[C@H](C)NC(=O)[C@@H](N)CC(N)=O)C(=O)N[C@@H](CCCNC(=N)N)C(=O)N[C@@H](C)C(=O)N[C@@H](CC(C)C)C(=O)N[C@@H](CCCCN)C(=O)O` [3102.0218] (H-NARLMRALK-OH) stands 2.2 nM. The compound `CSCC[C@H](NC(=O)[C@H](Cc1ccc(O)cc1)NC(=O)[C@H](CC(N)=O)NC(=O)[C@H](Cc1ccc(O)cc1)NC(=O)[C@H](CO)NC(=O)[C@H](CCCCN)NC(=O)[C@@H](NC(=O)[C@@H](N)CCCCN)C(C)C)C(=O)N[C@@H](CC(C)C)C(=O)O` [3102.0219] (H-KVKSYNYML-OH) returned an IC50 of 0.18 nM. `CC(C)C[C@H](NC(=O)[C@@H](N)CCCNC(=N)N)C(=O)N[C@@H](CCCCN)C(=O)N[C@@H](CO)C(=O)N[C@@H](C)C(=O)N[C@H](C(=O)N[C@@H](CS)C(=O)N[C@@H](Cc1ccc(O)cc1)C(=O)N[C@@H](CCCCN)C(=O)O)C(C)C` [3102.0220] (H-RLKSAVCYK-OH) returned an IC50 of 0.18 nM. `C[C@@H](O)[C@H](N)C(=O)N[C@@H](Cc1ccccc1)C(=O)N[C@@H](CCCNC(=N)N)C(=O)N[C@@H](CCC(=O)O)C(=O)N[C@@H](CCCNC(=N)N)C(=O)N[C@@H](Cc1ccc(O)cc1)C(=O)N[C@@H](CO)C(=O)N[C@@H](Cc1ccc(O)cc1)C(=O)N[C@@H](CCCCN)C(=O)O` [3102.0221] (H-TFRERYSYK-OH): the IC50 amounted to 0.89 nM.

Source of the values: PMC2248166, “Quantitative peptide binding motifs for 19 human and mouse MHC class I molecules derived using positional scanning combinatorial peptide libraries” (Immunome Research, 2008).
